Measured values published in PMC9312238, “Novel Organoselenium Redox Modulators with Potential Anticancer, Antimicrobial, and Antioxidant Activities” (Antioxidants, 2022).

Experiments:
[1] = tested on: MCF-7 cells; test: cells; format: cell-based, human; settings: for IC50: Homo sapiens, MCF7, MTT, 24 h incubation, MCF-7 cells, read-out: MCF7 IC50
Experimental: (§1) Cells were obtained from the ATCC Company (VACSERA), Cairo, Egypt. MTT assay were performed according to the literature method. More details are in the Supporting Information.
(§2) Recently, OSe compounds gained much attention as possible drug candidates due to their various pharmacological properties. […] Therefore, the anticancer attributes of the newly prepared OSe compounds were estimated using the MTT assay against MCF-7 and HepG2 and compared with their respective cytotoxicity in WI-38 primary cells. The anthracycline drug doxorubicin was used as the standard. […] Moreover, the therapeutic index (TI) was also calculated (according to Equation (1)), which is considered a measure of the selectivity and safety of the synthesized compounds. (1) TI=IC50 for the normal WI38 cells/IC50 for the cancer cells […]
(§3) 1.1. The biological assays
(§4) 1.1.1. The anticancer activity
(§5) The breast adenocarcinoma (MCF-7), Hepatocellular carcinoma (HEPG-2), and nor-mal fibroblast (WI-38) cells were obtained from ATCC via Holding company for biological products and vaccines (VACSERA), Cairo, Egypt.
(§6) DMSO, and fetal bovine serum was obtained from Sigma Aldrich. Dulbecco’s modified Eagle’s medium was used as the culture medium for the cells, and the cytotoxicity was evaluated using the reported MTT assay. Doxorubicin was used as the positive reference, and the IC50 values were obtained from the corresponding dose-response curve.
(§7) This colorimetric assay is based on converting the yellow tetrazolium bromide (MTT) to a purple formazan derivative by mitochondrial succinate dehydrogenase in viable cells. […]
(§8) added were 100 units/ml penicillin and 100µg/ml streptomycin at 37 C in a 5% Co2 incu-bator. The cell lines were seeded in a 96-well plate at a density of 1.0x10^4 cells/well. at 37 C for 48 h under 5% Co2. After incubation, the cells were treated with different concentra-tions of compounds and incubated for 24 h. After 24 h of drug treatment, 20 µl of MTT solution at 5mg/ml was added and incubated for 4 h. Finally, dimethyl sulfoxide (DMSO) in the volume of 100 µl is added to each well to dissolve the purple formazan formed. The colorimetric assay is measured and recorded at an absorbance of 570 nm using a plate […]
(§9) The percentage of the relative cell viability was calculated as (A570 of treated samples/A570 of the untreated sample) X 100. […]

[2] = tested on: WI-38 cells; test: cells; format: cell-based, human; settings: Homo sapiens; MTT, 24 h incubation, normal WI-38 cells; read-out: WI38 IC50
Experimental: as §1, §2, §3, §4, §5, §6, §7, §8, §9

[3] = tested on: HepG2 cells; test: cells; format: cell-based, human; settings: for IC50: Homo sapiens, MTT, 24 h incubation, HepG2 cells, read-out: HepG2 IC50
Experimental: as §1
Recently, OSe compounds gained much attention as possible drug candidates due to their various pharmacological properties. Our group has reported several OSe candidates with potential anticancer, antimicrobial, and antioxidant activities. Therefore, the anticancer attributes of the newly prepared OSe compounds were estimated using the MTT assay against MCF-7 and HepG2 and compared with their respective cytotoxicity in WI-38 primary cells. The anthracycline drug doxorubicin was used as the standard. The minimal inhibition concentration required to kill 50% of the cells (IC50) was calculated from dose-response curves presented in Table 1. Moreover, the therapeutic index (TI) was also calculated (according to Equation (1)), which is considered a measure of the selectivity and safety of the synthesized compounds. (1) TI=IC50 for the normal WI38 cells/IC50 for the cancer cells […]
as §3, §4
The breast adenocarcinoma (MCF-7), Hepatocellular carcinoma (HEPG-2), and nor-mal fibroblast (WI-38) cells were obtained from ATCC via Holding company for biological products and vaccines (VACSERA), Cairo, Egypt. The reagents RPMI-1640 medium, MTT, DMSO, and fetal bovine serum was obtained from Sigma Aldrich. Dulbecco’s modified Eagle’s medium was used as the culture medium for the cells, and the cytotoxicity was evaluated using the reported MTT assay. Doxorubicin was used as the positive reference, and the IC50 values were obtained from the corresponding dose-response curve.
This colorimetric assay is based on converting the yellow tetrazolium bromide (MTT) to a purple formazan derivative by mitochondrial succinate dehydrogenase in viable cells.
Cell lines were cultured in RPMI-1640 medium with 10% fetal bovine serum. Antibiotics added were 100 units/ml penicillin and 100µg/ml streptomycin at 37 C in a 5% Co2 incu-bator. The cell lines were seeded in a 96-well plate at a density of 1.0x10^4 cells/well. at 37 C for 48 h under 5% Co2. After incubation, the cells were treated with different concentra-tions of compounds and incubated for 24 h. After 24 h of drug treatment, 20 µl of MTT solution at 5mg/ml was added and incubated for 4 h. Finally, dimethyl sulfoxide (DMSO) in the volume of 100 µl is added to each well to dissolve the purple formazan formed. The colorimetric assay is measured and recorded at an absorbance of 570 nm using a plate reader (EXL 800, USA). The percentage of the relative cell viability was calculated as (A570 of treated samples/A570 of the untreated sample) X 100. […]
(§10) Inhibition%= (Ablank-Asample)/(Ablank)*100. (1)

[4] = tested on: Escherichia coli; test: Agar diffusion assay, E. coli; format: cell-based; settings: for zone of inhibition at 20 µM: Escherichia coli, inhibition zone diameter, six-mm disks soaked with 20 μM of compound, read-out: E. coli IZD (mm); for E. coli A% (activity index): zone of test compound / zone of standard (ampicillin) x 100
[5] = tested on: Staphylococcus aureus; test: Agar diffusion assay, S. aureus; format: cell-based; settings: for zone of inhibition at 20 µM: Staphylococcus aureus, inhibition zone diameter, six-mm disks soaked with 20 μM of compound, read-out: S. aureus IZD (mm); for S. aureus A% (activity index): zone of test compound / zone of standard (ampicillin) x 100
Experimental: (§11) The antimicrobial activities of the OSe compounds were evaluated against C. albicans yeast, as well as E. coli and S. bacteria, employing the agar well diffusion assay. Furthermore, the MICs (in µM) were determined by the microdilution method according to the reported protocol. More details are in the Supporting Information.
(§12) Compounds were evaluated for their antimicrobial activity against the Gram-negative bacteria Escherichia coli (E. coli) and the Gram-positive bacteria Staphylococcus aureus (S. aureus), as well as the Candida albicans (C. albicans) fungal strain, using the agar diffusion assay. Ampicillin and clotrimazole were used as standards. Indeed, the antimicrobial properties of the OSe compounds were also obtained from the activity index percentage (A%) according to Equation (2). (2) A%=Zone of inhibition by test compound diametre/Zone of inhibition by standard diametre×100 . […]
(§13) 1.1.1. The antimicrobial activity
The antimicrobial activities of the OSe compounds were evaluated against C. albicans yeast as well as E. coli gram-negative and S. aureus gram-positive bacteria employing the agar well diffusion assay. Briefly, a concentration of 1 mM was prepared for each compound by dissolving in DMSO. Paper discs of standard size […] were steri-lized in an autoclave and soaked in 20 µL of the test compounds, and placed in the Petri dishes, which in turn contain a nutrient media (agar 20 g, peptone 5 g, and beef extract 3 g) seeded with the dedicated strain. Incubation lasted for 24 h at 36
(§14) Furthermore, the MICs (in µM) were determined by the microdilution method according to the reported protocol. […]
as §10

[6] = tested on: Candida albicans; test: microbe, parasite or virus in culture; format: cell-based; settings: for zone of inhibition at 20 µM: Candida albicans, inhibition zone diameter, six-mm disks soaked with 20 μM of compound, read-out: C. albicans IZD (mm); for C. albicans A% (activity index): zone of test compound / zone of standard (clotrimazole) x 100
Experimental: as §11, §12, §13
The antimicrobial activities of the OSe compounds were evaluated against C. albicans yeast as well as E. coli gram-negative and S. aureus gram-positive bacteria employing the agar well diffusion assay. […]
compound by dissolving in DMSO. […]
Petri dishes, which in turn contain a nutrient media (agar 20 g, peptone 5 g, and beef extract 3 g) seeded with the dedicated strain. Incubation lasted for 24 h at 36
as §14, §10

Compound | IC50 [1] [µM] | IC50 [2] [µM] | IC50 [3] [µM] | melting point [°C] | zone of inhibition at 20 µM [4] [mm] | E. coli A% (activity index) [4] [%] | zone of inhibition at 20 µM [5] [mm] | S. aureus A% (activity index) [5] [%] | zone of inhibition at 20 µM [6] [mm] | C. albicans A% (activity index) [6] [%] | MCF7 TI (IC50 WI-38 / IC50 MCF-7) ([1]; therapeutic index, ratio of WI-38 IC50 to MCF-7 IC50) | HepG2 TI (IC50 WI-38 / IC50 HepG2) ([3]; therapeutic index, ratio of WI-38 IC50 to HepG2 IC50)
O=CNc1ccc([Se]CC(=O)Nc2ccccc2)cc1 [Compound 17, 2-((4-formamidophenyl)selanyl)-N-phenylacetamide] | > 100 | > 100 | > 100 | 143 to 144 | – | – | – | – | – | – | – | –
O=C(C[Se]c1ccc(N=Cc2ccccc2O)cc1)Nc1ccccc1 | – | – | – | 150.3 | – | – | – | – | – | – | – | –
O=C(C[Se]c1ccc(N2C(=O)C=CC2=O)cc1)Nc1ccccc1 [Compound 13, 2-((4-(2,5-dioxo-2,5-dihydro-1H-pyrrol-1-yl)phenyl)selanyl)-N-phenylacetamide] | > 100 | > 100 | > 100 | 169 to 170 | 5 | 22 | 6 | 29 | – | – | – | –
O=C(C[Se]c1ccc(N2C(=O)c3ccccc3C2=O)cc1)Nc1ccccc1 [Compound 12, 2-((4-(1,3-dioxoisoindolin-2-yl)phenyl)selanyl)-N-phenylacetamide] | > 100 | > 100 | > 100 | 261 to 262 | 6 | 26 | 8 | 38 | 7 | 29 | – | –
O=C(CCl)Nc1ccc([Se]CC(=O)Nc2ccccc2)cc1 [Compound 19] | > 100 | > 100 | > 100 | 184.8 | – | – | – | – | – | – | – | –
CN(C)C=Nc1ccc([Se]CC(=O)Nc2ccccc2)cc1 [Compound 20, 2-((4-(((dimethylamino)methylene)amino)phenyl)selanyl)-N-phenylacetamide] | 36.8 ± 2.4 | > 100 | 40.3 ± 2.5 | 118 to 120 | 8 | 35 | 9 | 43 | 11 | 46 | 2.7 | 2.5
